| Compound | melting point |
| --- | --- |
| CC(=O)OC1(C(C)=O)CCC2(C)C(CCC3C4CCC(O)C4(C)CCC32)C1 (stereo not drawn) | 193 °C |
| Fc1cc(Br)cc(Br)c1Br | 30 to 34 °C |
| Clc1ccc(OCOc2ccc(Cl)cc2)cc1 | 70.5 °C |
| CN1CCN(C2=Nc3ccccc3Sc3ccc(Cl)cc32)CC1 | 119 °C |
| O=C(CCl)c1ccc(Cl)c(Cl)c1 | 44 °C |
| BrC1CCC(Br)C(Br)CCC(Br)C(Br)CCC1Br (stereo not drawn) | 173 to 177 °C |
| O=[N+]([O-])c1ccc(SCl)c([N+](=O)[O-])c1 | 99 °C |
| CC(C)(C)NC(=S)c1cc(C(C)(C)C)c(O)c(C(C)(C)C)c1 | 203 to 204 °C |
| c1ccc(C2Cc3ccccc3N2)cc1 (stereo not drawn) | 49 °C |
| Cc1cc2c(cc1C)C(=O)c1ccccc1C2=O | 211 °C |
| CC(C)(C)c1ccc(-c2nnc(S)n2-c2cccc(C(F)(F)F)c2)cc1 | 256 to 260 °C |
| C#CC(C)(C)Oc1ccc(C#N)cc1 | 30 to 32 °C |
| O=C1c2ccccc2C(=O)N1SC(Cl)(Cl)Cl | 178 °C |
| COc1ccc(SSc2ccc(OC)cc2)cc1 | 40 to 42 °C |
| O=C(NCCc1ncc(C(F)(F)F)cc1Cl)c1ccccc1C(F)(F)F | 118 °C |
| CC12C=CC(=O)C=C1CCC1C2C(O)CC2(C)C1CCC2(O)C(=O)COC(=O)CCCc1ccc(N(CCCl)CCCl)cc1 (stereo not drawn) | 164 °C |
| CC(C)(C)c1cc(N)[nH]n1 | 60 to 62 °C |
| COC(=O)C=P(c1ccccc1)(c1ccccc1)c1ccccc1 | 164 to 169 °C |
| Cc1nc(-c2ccc(C=O)cc2)cs1 | 101 to 102 °C |
| [O-][P+](c1ccccc1)(c1ccccc1)C1C2=C(CCCC2)OC2=C1CCCC2 | 157 °C |
| COc1ccccc1-c1ccc(C=CC(=O)c2ccco2)o1 | 96 to 98 °C |
| C[C@]12CCC(=O)C=C1CCC2=O | 55 to 64 °C |
| O=c1[nH]c(-c2ccccc2)cc2ccncc12 | 239 °C |
| CC1=C(C)C(=O)c2ccccc2C1=O | 127 °C |
| Cn1c(=O)[nH]c2ccccc21 | 192 to 196 °C |
| OC1Cc2cccc3cccc1c23 (stereo not drawn) | 148 °C |

| Compound | melting point |
| --- | --- |
| O=C1C(Br)=C(Br)C(=O)C(Br)=C1Br | 292 to 294 °C |
| O=C1OC(=O)c2c(I)c(I)c(I)c(I)c21 | 328 °C |
| O=C(Nc1ccc(N=Nc2ccc(N=Nc3ccc(NC(=O)c4ccccc4)cc3)cc2)cc1)c1ccccc1 | 336 °C |
| CC1(C)CC(O)CC(C)(CN)C1 (stereo not drawn) | 45.5 °C |
| N#Cc1ccc(N)c(N)c1 | 144 to 145 °C |
| COc1ccccc1-c1nnc2n1NC(c1ccc([N+](=O)[O-])cc1)S2 (stereo not drawn) | 196 °C |
| COc1cc2oc(=O)cc(CBr)c2cc1OC | 202 °C |
| O=S1(=O)OC(Cl)c2ccccc21 (stereo not drawn) | 110 to 116 °C |
| O=C(Cl)c1cccc2nsnc12 | 110 to 114 °C |
| O=C(O)C1c2ccccc2C(=O)N(Cc2ccc(F)cc2)C1c1cccnc1 (stereo not drawn) | 250 °C |
| Oc1ccc(Cl)c2c1CCC2 | 92 °C |
| Cc1cc(Cn2nc(C)cc2C)c(O)c(Cn2nc(C)cc2C)c1 | 125 °C |
| CN(C)c1ccc(/C=C(\C(N)=O)c2nc3ccccc3s2)cc1 | 210 °C |
| O=C1C(c2ccccc2)=[N+]([O-])c2cc([N+](=O)[O-])c(/C=C/c3ccccc3)cc21 | 233 °C |
| Cc1ccncc1/C=N/N(C)C | 50 °C |
| NNC(=O)COc1ccc(OC(F)(F)F)cc1 | 130 to 133 °C |
| CC(C)(C)OCC1CO1 (stereo not drawn) | -70 °C |
| CS(=O)(=O)n1ccnc1 | 86 to 88 °C |
| CCOP(=S)(OCC)SCSC(C)(C)C | -29.2 °C |
| CC1=C(C(=O)Nc2ccccc2)S(=O)(=O)CCO1 | 120 °C |
| Nc1ccc(S(=O)c2ccc(N)cc2)cc1 | 175 °C |
| c1ccc(-c2nccnc2-c2ccccc2)cc1 | 121 °C |
| Clc1cc2nsnc2cc1CBr | 75 to 77 °C |
| NS(=O)(=O)c1ccc2ccccc2c1 | 219 °C |
| N#Cc1ccccc1COc1ccccc1 | 62 to 64 °C |
| Brc1cccc2ncccc12 | 46 °C |

| Compound | melting point |
| --- | --- |
| Clc1ccc(N2CCNCC2)cc1Cl | 63 °C |
| O=C(Cc1ccc(Oc2ccccc2)cc1)c1ccccc1 | 58.3 to 59.9 °C |
| Nc1cccnc1Oc1ccccc1F | 87 to 89 °C |
| C1CCN2CC3CC(CN4CCCCC34)C2C1 (stereo not drawn) | 30.5 °C |
| c1ccc2c(C3CCNCC3)c[nH]c2c1 | 222 to 223 °C |
| Cc1cnc2c(C(=O)O)c(Cl)ccc2c1 | 253 °C |
| COC(=O)c1ccccc1S(=O)(=O)NC(=O)Nc1nc(C)cc(C)n1 | 204 °C |
| COc1ccc(C(C)NCC(OC)OC)cc1O (stereo not drawn) | 88 °C |
| Nc1ccc(N)c(N)c1 | 97.3 °C |
| CCOc1cccc(OCC(F)(F)F)c1C#N | 78 to 80 °C |
| Cc1cc(Br)cnc1N | 92 to 94 °C |
| N#Cc1c[nH]cc1-c1cccc(Cl)c1Cl | 150 °C |
| Nc1ccccc1/C=C/c1ccccc1 | 106 °C |
| CCC1CCC(=O)O1 (stereo not drawn) | -18 °C |
| N#Cc1cc(N)ccc1-n1cccc1 | 135 to 136 °C |
| CSc1nc(N)nc(C(C)C)n1 | 127 to 130 °C |
| O=C1CN(N=Cc2ccc(-c3ccc([N+](=O)[O-])cc3)o2)C(=O)N1 | 280 °C |
| N#CC(C=O)c1ccc(Cl)cc1 (stereo not drawn) | 157 °C |
| CC(=O)OC1CCC2(C)C3CCC4=C(CCC4(C)C(C)OC(C)=O)C3CCC2(C)C1 (stereo not drawn) | 117 to 119 °C |
| Cc1ccc(C)c(O)c1C | 58 °C |
| COc1ccc(-c2cc(NN=c3c(C(F)(F)F)nc4ccccc4[nH]c3=O)[nH]n2)cc1 | 154 °C |
| C[Si](C)(C)O[Si](C)(C)O[Si](C)(C)O[Si](C)(C)O[Si](C)(C)O[Si](C)(C)O[Si](C)(C)C | -78 °C |
| O=Cc1c(Cl)[nH]n(-c2ccccc2)c1=O | 167 °C |
| OCc1ccccc1C(c1ccc(O)cc1)c1ccc(O)cc1 | 202 °C |
| COc1ccc(C=CC(=O)c2ccc(F)cc2)c(OC)c1 | 117 to 122 °C |
| Cc1c(Cl)ccc([N+](=O)[O-])c1Cl | 54 °C |

Continued, values first:

| melting point | Compound |
| --- | --- |
| 181 °C | OCC1OC(n2cnc3cncnc32)C(O)C1O (stereo not drawn) |
| 13.7 °C | CN1CCC(CCCC2CCN(C)CC2)CC1 |
| 59 to 62 °C | Cc1nn(C(=O)OC(C)(C)C)c(C)c1C=O |
| 13 °C | O=C(O)C(F)(F)C(F)(F)C(F)(F)C(F)(C(F)(F)F)C(F)(F)F |
| 149 °C | CC(=O)Nc1ccc(S(=O)(=O)Cl)cc1 |
| 111 °C | CC(C)(C)OC(=O)N[C@@H](CC(=O)OCc1ccccc1)C(=O)O |
| 164 °C | CC1=C(C(=O)OCc2ccccc2)C(c2ccco2)NC(=S)N1 (stereo not drawn) |
| 118 to 120 °C | COC(=O)c1ccc2snnc2c1 |
| 143 °C | CCCCc1ccc(NC(=O)Oc2ccc(OC)cc2)cc1 |
| 87 °C | CC1(C)OC(C(O)CO)C(C(O)CO)O1 (stereo not drawn) |
| 247 °C | O=C(O)c1cccc2c1Cc1ccccc1-2 |
| -64 °C | CC(=O)CC(C)(C)C |
| 103 to 105 °C | CCOC(=O)C(C#N)=C(SC)Sc1ncccn1 |
| -20 °C | CCCCOC(=O)CC(O)(CC(=O)OCCCC)C(=O)OCCCC |
| 150 °C | CC(C)NNC(=O)c1ccncc1 |
| 114 °C | CCCCCCCCCCc1ccc(NC(=O)c2ccc(C)cc2)cc1 |
| 72 to 73 °C | CC1=C(C#N)C(c2cccc([N+](=O)[O-])c2)C(C(=O)OCCN(C)C)=C(C)N1 (stereo not drawn) |
| 236 to 238 °C | C/C(=N/NC(N)=O)C(=O)Nc1ccccc1 |
| 195 °C | CCCCOC(=O)C(=O)C1C(C)CC2C3CC(F)C4=CC(=O)C=CC4(C)C3C(O)CC21C (stereo not drawn) |
| 188 °C | O=C(O)c1nccnc1C(=O)O |
| 116 to 117 °C | COC(=O)c1ccc(N)c(C)c1 |
| 38 °C | C=CCCCCCCCCCCCCCCCCCCCC |
| 43.4 °C | CCCSc1ncccc1C(=O)Cl |
| 167 °C | C[Si](O)(c1ccccc1)c1ccccc1 |
| 146 to 149 °C | CCC(C)C(NC(=O)OCC1c2ccccc2-c2ccccc21)C(=O)O (stereo not drawn) |

| melting point | Compound |
| --- | --- |
| 165 to 172 °C | Cc1cc(NC(=O)C=CC(=O)O)no1 |
| 159 °C | COc1ccc(C/C(=N\O)C(=O)O)cc1 |
| 68 °C | CC(O)c1cccc(N)c1 (stereo not drawn) |
| 39 °C | CCCCCCCCCOc1ccc(N)cc1 |
| 228 °C | COc1cc(C)c(C=CC(C)=CC=CC(C)=CC(=O)O)c(C)c1C |
| 61 °C | CCCCC(O)C(=O)O (stereo not drawn) |
| 65 °C | CCOC(=O)COC(=O)c1cc(Oc2ccc(C(F)(F)F)cc2Cl)ccc1[N+](=O)[O-] |
| 69.5 °C | O=C(O)C1(C(F)(F)F)CCCCC1 |
| 166 °C | Cc1cnc(C(=O)O)cn1 |
| 42.5 °C | C=CCN(CC=C)C(=O)COC(=O)c1ccccc1 |
| 148 °C | NC(=O)C1CCNCC1 |
| 109 °C | CC(=O)Oc1nc(CCc2ccccc2)nn1-c1ccccc1 |
| 84 to 86 °C | COC(=O)c1cccnc1N |
| 70 °C | COC(=O)c1ccc(=O)oc1 |
| 85 to 89 °C | CC(C)(C)OC(=O)N[C@@H](C=O)Cc1ccccc1 |
| 254 °C | CC(=O)C(C(C)=O)=C1SC2=C(C(=O)c3ccccc3C2=O)N1c1ccccc1 |
| 9 °C | COC(=O)CCCCC(=O)O |
| 99 to 101 °C | COc1ccc(CC(=O)O)c(OC)c1OC |
| 30 to 34 °C | CCCC(CCC)C(C(=O)O)C(=O)OCC (stereo not drawn) |
| 83 °C | CC1=C(O)C(=O)C(C(C)C)CC1 (stereo not drawn) |
| 174 to 175 °C | O=C(O)c1ccc(Oc2ccccn2)cc1 |
| -9 °C | CCCCCCC(=O)CCC |
| 79 to 80 °C | CCCCCCCCCCCCCCCCCCCCCCC(=O)O |
| 257 to 259 °C | CCOC(=O)c1cn[nH]c1NC(=O)Nc1cccc(Cl)c1 |
| 49 °C | CCCc1ssc(=S)c1C |

Reference: a melting point compilation (Tetko et al.)
